Measured values taken from patent publication US20240383908A1, “SYNTHESIS AND APPLICATION OF PHOSPHATASE DEGRADER” (HINOVA PHARMACEUTICALS INC., priority 2021, published 2024).

Legend:
Type in all cases: cell-based
SHP2 protein [1] = target: T1, SHP2 protein (Homo sapiens, UniProt Q06124); test: Degradation activity on SHP2 protein in MV-411 cells (Western blot, DC50); set-up: endogenous in cells; settings: MV411 cells, 24 hours, read-out: Degradation activity for differenct cell lines MV411 (DC50)
T1 sequence (Q06124 1-593): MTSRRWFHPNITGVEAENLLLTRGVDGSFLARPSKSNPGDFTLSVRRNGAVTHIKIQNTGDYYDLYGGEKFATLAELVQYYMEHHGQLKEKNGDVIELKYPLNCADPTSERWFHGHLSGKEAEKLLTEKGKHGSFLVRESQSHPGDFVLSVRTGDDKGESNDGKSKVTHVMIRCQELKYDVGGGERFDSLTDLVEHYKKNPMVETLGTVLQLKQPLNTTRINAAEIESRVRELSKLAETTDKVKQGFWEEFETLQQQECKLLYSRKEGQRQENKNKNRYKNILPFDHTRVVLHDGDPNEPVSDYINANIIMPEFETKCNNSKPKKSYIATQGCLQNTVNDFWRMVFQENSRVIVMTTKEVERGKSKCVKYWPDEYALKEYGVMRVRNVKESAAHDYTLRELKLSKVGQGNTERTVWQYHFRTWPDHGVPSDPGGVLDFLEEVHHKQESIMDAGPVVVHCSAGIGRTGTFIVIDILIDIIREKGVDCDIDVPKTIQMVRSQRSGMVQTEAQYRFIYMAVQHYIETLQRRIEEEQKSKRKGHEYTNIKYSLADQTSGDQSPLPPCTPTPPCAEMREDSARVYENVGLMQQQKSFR
In short: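 MV-411 cells (1×10^6 cells/well, IMDM + 10% FBS) were treated 24 h with compound at 0.1-100 nM final, 0.1% DMSO, duplicates. SHP2 measured by Western blot against GAPDH, band density normalised to DMSO control; DC50 from dose-response fit.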

SHP2 protein [2] = target: T1, SHP2 protein; test: Degradation activity on SHP2 protein in MIA Paca-2 cells (Western blot, DC50); set-up: endogenous in cells; host or cells: MIA Paca-2 cells; settings: read-out: Degradation activity for differenct cell lines MIA Paca-2 (DC50)
In short: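 Cells were treated 24 h at 37 °C with compound (0.1–100 nM final, 0.1% DMSO). SHP2 was measured by Western blot with GAPDH as loading control, densitometry normalized to DMSO (100%). DC50, the concentration giving 50% degradation, came from a dose-response fit.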

SHP2 protein [3] = target: T1, SHP2 protein; test: Degradation activity on SHP2 protein in NCI-H358 cells (Western blot, DC50); set-up: endogenous in cells; settings: read-out: Degradation activity for differenct cell lines NCI-H358 (DC50)
Experimental: (1) MV-411 cells were cultured in the cell culture medium, and then well-growing cells were selected and inoculated in a 12-well plate, with 1 mL/well and 1×10^6 cells/well. The plate was incubated overnight in a 5% CO2 cell incubator at 37° C.
(2) 10 mM storage solution of each drug was prepared using dimethylsulfoxide (DMSO). The stock solution was diluted gradually with DMSO before use, and then 1 μL of the compound solution was added to the cell culture well (to ensure that the DMSO concentration in the culture system was […]), so that the final drug concentration is 100 nM, 10 nM, 3 nM, 1 nM, 0.3 nM, and 0.1 nM. Two wells were set for each concentration. The plate was gently shaken and mixed. Additionally, negative control wells (containing an equal amount of DMSO) and positive control wells were included.
(3) After 24 hours of cultivation, the cells were lysed using RIPA cell lysate, and the proteins were extracted. The protein concentration was measured using a BCA assay kit. 5× concentrated protein buffer was loaded, heated at 100° C. for 5 min, and then the sample was stored at −20° C.
(4) For each well, 30 μg of protein was loaded to polyacrylamide gel for electrophoresis.
(5) The protein was transferred from polyacrylamide gel to PVDF membrane, and sealed at room temperature with 5% skimmed milk for 1 h, which was then incubated with the primary antibodies (Anti-SHP2 rabbit mAb and Anti-GAPDH rabbit mAb) at 4° C. overnight. The membrane was washed three times with TBST solution, 10 minutes for each time. After that, the membrane was incubated with the secondary antibodies (horseradish peroxidase labeled goat anti-rabbit IgG) at room temperature for 2 h, and then washed three times with TBST solution, 10 minutes for each time, followed by exposure.
(6) The images were analyzed with Image J grayscale, and the degradation ratio of protein bands in the test group was calculated, based on the negative control group (DMSO) (100%).
(7) Using the Dose-response-inhibition equation in the data processing software GraphPad Prism 8, the DC50 value was obtained (which represents the drug concentration corresponding to 50% degradation of the target protein).
Using similar methods and different cell lines, the degradation activity of the compound according to the present invention on SHP2 protein of different cell lines was tested under suitable culture conditions.

SMILES	DC50 (SHP2 protein [1])	DC50 (SHP2 protein [2])	DC50 (SHP2 protein [3])
CC1(N)CCN(c2cnc(Sc3cccc(NC(=O)CCCCCOC4CC5(CCN(c6ccc(C(=O)NCc7ccc8c(c7)CN(C7CCC(=O)NC7=O)C8=O)cc6F)CC5)C4)c3)cn2)CC1 (stereo not shown) [Compound 176]	< 100 nM	< 100 nM	100 to 1000 nM
Cc1ncsc1-c1ccc([C@H](C)NC(=O)[C@@H]2C[C@@H](O)CN2C(=O)[C@@H](NC(=O)c2cnc(N3CCC(OCCCCCCCC(=O)Nc4cccc(Sc5cnc(N6CCC(C)(N)CC6)cn5)c4)CC3)nc2)C(C)(C)C)cc1 [Compound 78]	< 100 nM	< 100 nM	< 100 nM
CC1(N)CCN(c2cnc(Sc3cccc(NC(=O)CCCCCCN4CC5(CC=C(c6ccc(C(=O)NCc7ccc8c(c7)CN(C7CCC(=O)NC7=O)C8=O)nn6)CC5)C4)c3)cn2)CC1 (stereo not shown) [Compound 207]	< 100 nM	< 100 nM	< 100 nM
Cc1ncsc1-c1ccc([C@H](C)NC(=O)[C@@H]2C[C@@H](O)CN2C(=O)[C@@H](NC(=O)CCCCCN2CCC3(C2)CN(CCC(=O)Nc2cccc(Sc4cnc(N5CCC(C)(N)CC5)cn4)c2)C3)C(C)(C)C)cc1 [Compound 46]	< 100 nM	–	> 1000 nM
CC1(N)CCN(c2cnc(Sc3cccc(NC(=O)CCCCCCCCN4CC=C(c5ccc(C(=O)NCc6ccc7c(c6)CN(C6CCC(=O)NC6=O)C7=O)nn5)CC4)c3)cn2)CC1 (stereo not shown) [Compound 188]	< 100 nM	< 100 nM	< 100 nM
CC1(N)CCN(c2cnc(Sc3cccc(NC(=O)CCCCCCCN4CC5CN(c6ccc(C(=O)NCc7ccc8c(c7)CN(C7CCC(=O)NC7=O)C8=O)nn6)CC5C4)c3)cn2)CC1 (stereo not shown) [Compound 100]	< 100 nM	< 100 nM	< 100 nM
Cc1ncsc1-c1ccc([C@H](C)NC(=O)[C@@H]2C[C@@H](O)CN2C(=O)[C@@H](NC(=O)c2cnc(N3CCC4(CN(CCC(=O)Nc5cccc(Sc6cnc(N7CCC(C)(N)CC7)cn6)c5)C4)C3)nc2)C(C)(C)C)cc1 [Compound 64]	< 100 nM	100 to 1000 nM	100 to 1000 nM
CC1(N)CCN(c2cnc(Sc3cccc(NC(=O)CCCCCCN4CC5(CCN(c6ccc(C(=O)NCc7ccc8c(c7)CN(C7CCC(=O)NC7=O)C8=O)nc6Cl)C5)C4)c3)cn2)CC1 (stereo not shown) [Compound 200]	< 100 nM	< 100 nM	< 100 nM
Cc1ncsc1-c1ccc([C@H](C)NC(=O)[C@@H]2C[C@@H](O)CN2C(=O)[C@@H](NC(=O)c2cnc(N3CC(OCCCCCCCCC(=O)Nc4ccc(Sc5cnc(N6CCC(C)(N)CC6)cn5)cc4)C3)nc2)C(C)(C)C)cc1 [Compound 75]	< 100 nM	< 100 nM	< 100 nM
Cc1ncsc1-c1ccc([C@H](C)NC(=O)[C@@H]2C[C@@H](O)CN2C(=O)[C@@H](NC(=O)c2cnc(N3CC(OCCCCCCC(=O)Nc4cccc(Sc5cnc(N6CCC(C)(N)CC6)cn5)c4)C3)nc2)C(C)(C)C)cc1 [Compound 86]	< 100 nM	< 100 nM	< 100 nM
CC1(N)CCN(c2cnc(Sc3cccc(NC(=O)CCCCCCCOC4CCN(c5ncc(C(=O)NCc6ccc7c(c6)CN(C6CCC(=O)NC6=O)C7=O)cn5)CC4)c3)cn2)CC1 (stereo not shown) [Compound 79]	< 100 nM	100 to 1000 nM	< 100 nM
CC1(N)CCN(c2cnc(Sc3cccc(NC(=O)CCCCCCN4CC5(CCN(c6ccc(C(=O)NCc7ccc8c(c7)CN(C7CCC(=O)NC7=O)C8=O)nc6)C5)C4)c3)cn2)CC1 (stereo not shown) [Compound 186]	< 100 nM	< 100 nM	< 100 nM
CC1(N)CCN(c2cnc(Sc3cccc(NC(=O)CCCCCCN4CC5(CCC(c6ccc(C(=O)NCc7ccc8c(c7)CN(C7CCC(=O)NC7=O)C8=O)nc6)CC5)C4)c3)cn2)CC1 (stereo not shown) [Compound 216]	–	< 100 nM	< 100 nM

Other lines, results leading:

DC50 (SHP2 protein [1])	DC50 (SHP2 protein [2])	DC50 (SHP2 protein [3])	SMILES
–	100 to 1000 nM	< 100 nM	CC1(N)CCN(c2cnc(Sc3cccc(NC(=O)c4ccc(N5CCC(N6CC=C(c7ncc(C(=O)NCc8ccc9c(c8)CN(C8CCC(=O)NC8=O)C9=O)cc7Cl)CC6)CC5)cc4)c3)cn2)CC1 (stereo not shown) [Compound 365]
–	< 100 nM	< 100 nM	CC1(N)CCN(c2cnc(Sc3cccc(NC(=O)c4ccc(N5CCC(N6CCN(c7ccc(C(=O)NCc8ccc9c(c8)CN(C8CCC(=O)NC8=O)C9=O)nc7)CC6)CC5)cn4)c3)cn2)CC1 (stereo not shown) [Compound 448]
–	< 100 nM	< 100 nM	CC1(N)CCN(c2cnc(Sc3cccc(NC(=O)CCCCCCCCN4C[C@@H]5C[C@H]4CN5c4ccc(C(=O)NCc5ccc6c(c5)CN(C5CCC(=O)NC5=O)C6=O)nn4)c3)cn2)CC1 (stereo partly shown) [Compound 237]
–	< 100 nM	< 100 nM	CC1(N)CCN(c2cnc(Sc3cccc(NC(=O)CCCCCCCCN4CCN(c5ccc(C(=O)NCc6ccc7c(c6)CN(C6CCC(=O)NC6=O)C7=O)nc5Cl)CC4C(F)(F)F)c3)cn2)CC1 (stereo not shown) [Compound 227]
–	< 100 nM	< 100 nM	CCC1(N)CCN(c2cnc(Sc3cccc(NC(=O)CCCCCCCCN4CCC(c5ccc(C(=O)NCc6ccc7c(c6)CN(C6CCC(=O)NC6=O)C7=O)nn5)CC4)c3)cn2)CC1 (stereo not shown) [Compound 223]
–	< 100 nM	< 100 nM	CC1(N)CCN(c2cnc(Sc3cccc(NC(=O)c4ccc(N5CCC(N6CCN(c7ccc(C(=O)NCc8ccc9c(c8)CN(C8CCC(=O)NC8=O)C9=O)nn7)CC6)CC5)c(F)c4)c3)cn2)CC1 (stereo not shown) [Compound 397]
–	< 100 nM	< 100 nM	CC1(N)CCN(c2cnc(Sc3cccc(NC(=O)c4ccc(N5CCC(N6CCN(c7ccc(C(=O)NCc8ccc9c(c8)CN(C8CCC(=O)NC8=O)C9=O)nc7)CC6)CC5)c(F)c4)c3)cn2)CC1 (stereo not shown) [Compound 396]
–	> 1000 nM	< 100 nM	NC1(CO)CCN(c2cnc(Sc3cccc(NC(=O)c4ccc(N5CCC(N6CC=C(c7ccc(C(=O)NCc8ccc9c(c8)CN(C8CCC(=O)NC8=O)C9=O)nn7)CC6)CC5)cc4)c3)cn2)CC1 (stereo not shown) [Compound 375]
–	< 100 nM	< 100 nM	CC1(N)CCN(c2cnc(Sc3cccc(NC(=O)CCCCCCCCN4C5CCC4CC(c4ccc(C(=O)NCc6ccc7c(c6)CN(C6CCC(=O)NC6=O)C7=O)nn4)C5)c3)cn2)CC1 (single isomer, unassigned) [Compound 232]
–	< 100 nM	< 100 nM	CC1(N)CCN(c2cnc(Sc3cccc(NC(=O)CCCCc4ccc(N5CCN(c6ccc(C(=O)NCc7ccc8c(c7)CN(C7CCC(=O)NC7=O)C8=O)nn6)CC5)cc4)c3)cn2)CC1 (stereo not shown) [Compound 244]
–	< 100 nM	< 100 nM	CC1(N)CCN(c2cnc(Sc3cccc(NC(=O)c4ccc(N5CCC(N6CC=C(c7cnc(C(=O)NCc8ccc9c(c8)CN(C8CCC(=O)NC8=O)C9=O)cc7Cl)CC6)CC5)nc4)c3)cn2)CC1 (stereo not shown) [Compound 419]
–	< 100 nM	< 100 nM	CC1(N)CCN(c2cnc(Sc3cccc(NC(=O)CCCCCCCCN4CC=C(c5ccc(C(=O)NCc6ccc7c(c6)CN(C6CCC(=O)NC6=O)C7=O)nc5)C(C)(C)C4)c3)cn2)CC1 (stereo not shown) [Compound 222]
